Reference: ChEMBL document CHEMBL4765362, “Thirty Years of HDAC Inhibitors: 2020 Insight and Hindsight” (J Med Chem, 2020)

How the values were obtained:
[1] = biological target: T1, Polyamine deacetylase HDAC10 (Homo sapiens, UniProt Q969S8); test: Inhibition of HDAC10 (unknown origin) using p53 residues (379 to 382)(RHKK(Ac)-AMC) as substrate by fluorescent method
T1 sequence (Q969S8 whole entry): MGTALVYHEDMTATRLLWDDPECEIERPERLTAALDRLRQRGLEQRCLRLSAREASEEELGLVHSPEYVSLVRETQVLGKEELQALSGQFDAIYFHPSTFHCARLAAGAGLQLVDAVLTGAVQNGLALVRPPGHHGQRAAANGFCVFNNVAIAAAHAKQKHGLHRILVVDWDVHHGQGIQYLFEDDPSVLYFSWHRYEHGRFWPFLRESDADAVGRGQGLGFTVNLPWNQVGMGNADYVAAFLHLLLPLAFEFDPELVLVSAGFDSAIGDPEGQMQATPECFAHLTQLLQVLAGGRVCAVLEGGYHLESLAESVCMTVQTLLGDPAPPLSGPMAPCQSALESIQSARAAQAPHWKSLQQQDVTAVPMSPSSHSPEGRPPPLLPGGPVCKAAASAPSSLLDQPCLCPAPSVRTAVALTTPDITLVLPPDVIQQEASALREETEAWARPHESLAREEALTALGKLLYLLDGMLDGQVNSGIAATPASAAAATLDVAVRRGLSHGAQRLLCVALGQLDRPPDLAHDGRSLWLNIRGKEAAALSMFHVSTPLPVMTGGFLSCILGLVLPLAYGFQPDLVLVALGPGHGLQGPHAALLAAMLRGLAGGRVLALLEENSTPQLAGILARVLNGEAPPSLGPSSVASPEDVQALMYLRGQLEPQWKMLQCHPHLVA

[2] = biological target: T2, Histone deacetylase 7 (Homo sapiens, UniProt Q8WUI4); test: Inhibition of HDAC7 (unknown origin) using HDAC class IIa substrate (trifluoroacetyl-lysine-AMC) as substrate by fluorescent method
T2 sequence (Q8WUI4 whole entry): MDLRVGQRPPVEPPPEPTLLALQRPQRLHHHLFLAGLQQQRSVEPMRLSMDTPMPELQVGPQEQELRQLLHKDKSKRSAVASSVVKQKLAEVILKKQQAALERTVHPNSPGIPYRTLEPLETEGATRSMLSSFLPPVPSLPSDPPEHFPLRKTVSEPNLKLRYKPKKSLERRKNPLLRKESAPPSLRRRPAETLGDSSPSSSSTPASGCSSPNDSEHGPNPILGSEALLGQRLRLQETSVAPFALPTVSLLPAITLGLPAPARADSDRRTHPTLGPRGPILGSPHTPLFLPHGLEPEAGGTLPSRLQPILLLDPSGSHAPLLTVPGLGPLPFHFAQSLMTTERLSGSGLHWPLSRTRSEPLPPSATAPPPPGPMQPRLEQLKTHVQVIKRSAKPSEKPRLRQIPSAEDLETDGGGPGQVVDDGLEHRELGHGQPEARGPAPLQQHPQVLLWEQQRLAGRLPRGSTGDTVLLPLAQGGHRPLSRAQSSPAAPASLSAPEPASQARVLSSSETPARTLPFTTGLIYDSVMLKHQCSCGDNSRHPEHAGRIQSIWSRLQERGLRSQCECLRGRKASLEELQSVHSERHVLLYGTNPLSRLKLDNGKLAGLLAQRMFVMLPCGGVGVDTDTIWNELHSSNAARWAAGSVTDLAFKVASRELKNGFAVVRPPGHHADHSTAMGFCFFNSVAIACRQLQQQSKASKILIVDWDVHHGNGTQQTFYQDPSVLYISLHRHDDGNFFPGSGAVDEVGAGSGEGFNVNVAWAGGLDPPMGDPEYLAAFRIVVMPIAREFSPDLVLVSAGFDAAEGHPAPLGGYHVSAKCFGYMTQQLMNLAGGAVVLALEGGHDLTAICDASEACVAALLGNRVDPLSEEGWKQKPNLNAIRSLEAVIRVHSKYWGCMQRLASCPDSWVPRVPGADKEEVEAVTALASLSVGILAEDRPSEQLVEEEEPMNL

[3] = biological target: T3, Histone deacetylase 11 (Homo sapiens, UniProt Q96DB2); test: Inhibition of HDAC11 (unknown origin) using p53 (379 to 382 residues)(RHKK(Ac)-AMC) as substrate by fluorescent method
T3 sequence (Q96DB2 whole entry): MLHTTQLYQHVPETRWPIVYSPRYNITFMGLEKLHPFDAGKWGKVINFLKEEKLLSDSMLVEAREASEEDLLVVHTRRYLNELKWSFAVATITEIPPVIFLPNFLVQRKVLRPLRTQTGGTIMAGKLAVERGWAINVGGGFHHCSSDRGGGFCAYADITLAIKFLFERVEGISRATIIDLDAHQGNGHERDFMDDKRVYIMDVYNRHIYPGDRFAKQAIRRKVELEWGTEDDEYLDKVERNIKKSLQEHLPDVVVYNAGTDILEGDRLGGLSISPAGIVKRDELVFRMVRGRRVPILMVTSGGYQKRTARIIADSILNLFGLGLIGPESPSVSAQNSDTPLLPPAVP

[4] = biological target: Histone deacetylase 5 (Homo sapiens, UniProt Q9UQL6); test: Inhibition of HDAC5 (unknown origin)
Chain of Histone deacetylase 5 (Q9UQL6 whole entry): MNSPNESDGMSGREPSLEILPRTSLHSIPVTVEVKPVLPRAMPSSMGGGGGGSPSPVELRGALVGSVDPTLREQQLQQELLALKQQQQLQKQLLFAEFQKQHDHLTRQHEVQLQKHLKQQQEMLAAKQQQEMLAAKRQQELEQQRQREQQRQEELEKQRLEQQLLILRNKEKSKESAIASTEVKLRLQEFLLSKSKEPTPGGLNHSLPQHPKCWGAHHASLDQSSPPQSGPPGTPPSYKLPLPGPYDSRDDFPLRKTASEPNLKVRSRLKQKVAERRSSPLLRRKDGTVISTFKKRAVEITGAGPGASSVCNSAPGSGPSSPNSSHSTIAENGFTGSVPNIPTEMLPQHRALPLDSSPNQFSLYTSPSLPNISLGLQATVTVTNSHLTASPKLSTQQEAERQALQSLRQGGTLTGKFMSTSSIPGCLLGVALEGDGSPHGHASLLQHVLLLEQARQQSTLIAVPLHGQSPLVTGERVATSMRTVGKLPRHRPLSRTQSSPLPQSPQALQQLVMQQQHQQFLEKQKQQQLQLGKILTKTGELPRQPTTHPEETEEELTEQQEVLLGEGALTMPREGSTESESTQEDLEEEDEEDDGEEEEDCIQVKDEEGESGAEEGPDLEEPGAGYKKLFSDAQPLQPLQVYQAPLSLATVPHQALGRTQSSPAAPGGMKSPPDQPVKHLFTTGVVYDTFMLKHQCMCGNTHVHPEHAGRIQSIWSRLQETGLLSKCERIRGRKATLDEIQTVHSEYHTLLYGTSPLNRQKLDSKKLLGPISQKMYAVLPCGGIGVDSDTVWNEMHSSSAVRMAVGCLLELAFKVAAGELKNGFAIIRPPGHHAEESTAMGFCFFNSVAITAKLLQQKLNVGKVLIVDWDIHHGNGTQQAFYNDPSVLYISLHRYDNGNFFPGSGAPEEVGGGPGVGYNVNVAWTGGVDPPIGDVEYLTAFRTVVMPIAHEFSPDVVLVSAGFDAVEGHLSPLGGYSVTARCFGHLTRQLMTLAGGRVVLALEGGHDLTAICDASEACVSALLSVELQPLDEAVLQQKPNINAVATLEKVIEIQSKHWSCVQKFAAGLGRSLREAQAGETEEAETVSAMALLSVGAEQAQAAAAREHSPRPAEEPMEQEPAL

[5] = biological target: T1, Polyamine deacetylase HDAC10; test: Inhibition of HDAC10 (unknown origin)
[6] = biological target: T2, Histone deacetylase 7; test: Inhibition of HDAC7 (unknown origin)

IC50 [1]	IC50 [2]	IC50 [3]	IC50 [4]	IC50 [5]	IC50 [6]	SMILES
> 10 µM	> 10 µM	9.7 µM				Cn1cc(-c2ccc(S(=O)(=O)n3ccc(/C=C/C(=O)Nc4ccccc4N)c3)cc2)cn1 [DOMATINOSTAT]
			> 10 µM	> 10 µM	> 10 µM	CCCCCCCCCCCCCCCCNNC(=O)c1cccs1
